Test results published in patent publication US8709392B2, “Cosmetic/dermatological compositions comprising naphthoic acid compounds and polyurethane polymers” (Galderma Research & Development, priority 2005, dated 2014).

Key:
[1] = tested on: skin of the ear of the BALB/c mouse; test: Tolerance study in BALB/c mice (ear thickness after repeated topical applications); assay type: in vivo
Protocol: The present study is for comparing the irritant power of a reference gel containing 0.1% adapalene with that of three 0.1% adapalene formulations in gel form containing a polyurethane polymer at various concentrations, and also placebos thereof, on the skin of the ear of the BALB/c mouse after repeated topical applications for 6 days.
The daily topical application (20 μl) of the test products is performed on the inner face of the ear of BALB/c mice divided into ten groups (female mice about 8 weeks old) at a rate of one application per day for 6 days. The test products are:
The evaluation is performed by measuring the thickness of the ear by means of the Oditest and by clinical observation of the animals from the 2nd to the 19th day.

[2] = tested on: skin of the back of RHINO FVB/N RJ-hr^rh mice (Rhino); test: Study of the comedolytic activity on Rhino mice; assay type: in vivo, mouse; conditions: for Change in weight of the Rhino mice (%) D19-D1, Mean: 50 μl topical daily for 18 days; for increase in transepidermal water loss (TWL), AUC: Rhino mice, after 18 days of topical treatment
Protocol: The present study is aimed at evaluating the comedolytic activity of the reference gel containing 0.1% adapalene and of two 0.1% adapalene formulations in gel form with a polyurethane polymer at different concentrations, and also their placebos, on the skin of the back of RHINO FVB/N RJ-hr^rh mice (Rhino) after repeated topical applications for 18 days.
The daily topical application (50 μl) of the test products is performed on the skin of the back of Rhino mice divided into seven groups (approximately 7-week-old mice) at a rate of one application per day for 18 days. The test products are:
The tolerance evaluation is made by clinical observation of the dorsal epidermis with the following observation parameters: oedema, erythema and squamae 3 times a week for 19 days.
The comedolytic activity is evaluated by measuring the transepidermal water loss (TWL) on days D4, D11 and D19, by measuring the thickness of the epidermis, by counting the number of comedones/cm and by weighing the animals on days D1, D4, D11 and D19.
The TWL quantifies the impairment in the skin barrier by measuring the gradient of water vapor that is established in a layer 10 mm thick above the surface of the skin.

| Structure (SMILES) | irritant power ([1]; BALB/c mouse ear thickness kinetics D2-D19) | Increase in AUC versus placebo (%) ([1]; ear thickness AUC D2-D19, BALB/c mouse, relative to own placebo) | Change in weight of the Rhino mice (%) D19-D1, Mean [2] [%] | increase in transepidermal water loss (TWL), AUC [2] [%] |
| --- | --- | --- | --- | --- |
| COc1ccc(-c2ccc3cc(C(=O)O)ccc3c2)cc1C12CC3CC(CC(C3)C1)C2 [acetone+0.1% (m/m) adapalene, 6-[3-(1-adamantyl)-4-methoxyphenyl]-2-naphthoic acid] | also irritant | 30 | 9.2 | 299 |
| CC1(C)CCC(C)(C)c2cc(-c3cc4ccc(C(=O)O)cc4s3)ccc21 [2-(5,5,8,8-tetramethyl-5,6,7,8-tetrahydronaphthalen-2-yl)benzo[b]thiophene-6-carboxylic acid] | – | – | 10.4 | 332 |
